Results: patent EP1247803A2, “Indolinone compounds suitable for modulation of protein kinases” (Sugen, Inc., priority 1996, dated 1998)

Experiments:
[1] = target: PDGF-R (Homo sapiens, UniProt P09619); assay: PDGF-R ELISA; format: cell-based
Source text: A PDGF-R ELISA is described in International Patent Publication No. WO 96/40116, published December 19, 1996 by Tang et al.

[2] = target: T1, EGFR (Homo sapiens, UniProt P00533); assay: EGFR ELISA assay (in vitro kinase activity, EGFR captured from A431 cell lysate); format: biochemical; parameters: concentration or dose not given beside the values
T1 construct: Add 7 ug A431 cell lysate per well (EGFR source); endogenous in cells; host or cells: A431
Outline: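 EGFR from A431 lysate was captured on anti-EGFR antibody-coated plates and preincubated with compounds for 30 min. Autophosphorylation ran 5 min with 3 uM ATP and 5 mM MnCl2 (final), stopped with 20 mM EDTA. Phosphotyrosine was detected by anti-pTyr ELISA with ABTS/H2O2, read at 410 nm.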

[3] = tested on: MET; assay: MET biochemical kinase assay; parameters: species or system human; concentration or dose not given beside the values
Outline: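 MET from cell lysates captured on ELISA plates via rabbit anti-MET cytoplasmic-domain antibody; compounds added and kinase reaction run in ATP and divalent-metal buffer. Receptor phosphotyrosine detected with HRP-conjugated anti-phosphotyrosine antibody and TMB colorimetry.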

T1 sequence (P00533 25-1210): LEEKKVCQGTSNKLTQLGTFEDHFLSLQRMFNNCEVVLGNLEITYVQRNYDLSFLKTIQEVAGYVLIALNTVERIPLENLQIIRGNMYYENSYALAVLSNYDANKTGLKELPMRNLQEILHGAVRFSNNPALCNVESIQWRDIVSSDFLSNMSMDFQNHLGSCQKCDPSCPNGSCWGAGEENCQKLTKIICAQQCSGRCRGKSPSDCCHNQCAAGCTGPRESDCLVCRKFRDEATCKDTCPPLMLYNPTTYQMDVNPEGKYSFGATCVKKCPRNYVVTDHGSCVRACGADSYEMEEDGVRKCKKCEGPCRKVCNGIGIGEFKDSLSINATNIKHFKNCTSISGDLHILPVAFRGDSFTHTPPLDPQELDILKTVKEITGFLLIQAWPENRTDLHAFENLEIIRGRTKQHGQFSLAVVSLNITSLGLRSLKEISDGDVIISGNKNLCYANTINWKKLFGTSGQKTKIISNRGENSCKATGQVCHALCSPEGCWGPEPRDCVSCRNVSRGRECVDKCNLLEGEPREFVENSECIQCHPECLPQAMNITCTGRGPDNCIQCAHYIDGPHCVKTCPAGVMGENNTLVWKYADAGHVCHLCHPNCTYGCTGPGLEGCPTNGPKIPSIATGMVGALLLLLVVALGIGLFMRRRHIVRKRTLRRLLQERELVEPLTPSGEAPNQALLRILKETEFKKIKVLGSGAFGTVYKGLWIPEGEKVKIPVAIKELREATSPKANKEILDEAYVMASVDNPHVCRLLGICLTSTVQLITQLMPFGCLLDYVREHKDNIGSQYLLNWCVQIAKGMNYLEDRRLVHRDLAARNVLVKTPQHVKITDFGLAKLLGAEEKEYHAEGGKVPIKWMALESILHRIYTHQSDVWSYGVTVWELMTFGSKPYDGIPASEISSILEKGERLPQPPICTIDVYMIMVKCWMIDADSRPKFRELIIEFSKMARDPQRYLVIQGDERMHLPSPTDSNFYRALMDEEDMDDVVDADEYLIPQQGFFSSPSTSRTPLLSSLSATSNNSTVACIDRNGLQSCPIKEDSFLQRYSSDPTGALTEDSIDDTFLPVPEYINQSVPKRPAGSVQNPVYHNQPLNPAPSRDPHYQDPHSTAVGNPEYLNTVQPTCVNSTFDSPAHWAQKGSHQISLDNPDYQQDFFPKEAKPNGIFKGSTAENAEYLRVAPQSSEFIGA
Chain of PDGF-R (P09619 33-1106, species assumed): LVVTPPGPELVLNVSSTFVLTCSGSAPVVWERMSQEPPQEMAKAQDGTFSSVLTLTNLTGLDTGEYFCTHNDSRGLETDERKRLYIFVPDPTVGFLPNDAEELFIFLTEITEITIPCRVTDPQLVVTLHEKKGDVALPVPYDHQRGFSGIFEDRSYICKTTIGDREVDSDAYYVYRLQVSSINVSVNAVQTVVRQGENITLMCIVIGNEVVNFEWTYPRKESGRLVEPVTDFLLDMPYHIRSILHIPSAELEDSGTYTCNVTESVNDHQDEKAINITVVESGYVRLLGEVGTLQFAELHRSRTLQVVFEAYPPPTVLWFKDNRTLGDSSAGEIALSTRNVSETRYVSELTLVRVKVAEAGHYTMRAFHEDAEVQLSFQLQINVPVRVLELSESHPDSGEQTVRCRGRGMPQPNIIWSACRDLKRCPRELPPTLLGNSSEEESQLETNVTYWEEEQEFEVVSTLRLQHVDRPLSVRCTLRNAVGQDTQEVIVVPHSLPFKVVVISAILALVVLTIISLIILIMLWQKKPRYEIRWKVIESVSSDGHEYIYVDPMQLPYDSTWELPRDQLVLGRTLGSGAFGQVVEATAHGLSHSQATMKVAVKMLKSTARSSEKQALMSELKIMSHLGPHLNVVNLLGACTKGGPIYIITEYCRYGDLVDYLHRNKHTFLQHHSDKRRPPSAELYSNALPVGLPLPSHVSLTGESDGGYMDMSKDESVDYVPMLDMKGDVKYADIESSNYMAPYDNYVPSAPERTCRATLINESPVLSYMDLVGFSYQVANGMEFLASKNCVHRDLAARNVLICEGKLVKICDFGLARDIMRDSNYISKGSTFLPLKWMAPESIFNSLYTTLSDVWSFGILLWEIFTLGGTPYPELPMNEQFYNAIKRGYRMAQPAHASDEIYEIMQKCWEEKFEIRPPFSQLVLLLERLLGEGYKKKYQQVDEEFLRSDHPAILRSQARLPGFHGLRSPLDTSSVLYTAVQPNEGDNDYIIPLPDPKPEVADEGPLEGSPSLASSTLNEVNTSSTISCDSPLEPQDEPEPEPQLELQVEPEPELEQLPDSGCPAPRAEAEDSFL

## O=C1Nc2ccc(S(=O)(=O)N3CCOCC3)cc2C1=Cc1ccc([N+](=O)[O-])cc1 [10734/F06]
[1]
  PDGF Kinase %Inhibition: -21.4%
[2]
  Biochem EGFR %Inhibition: -17.1%
[3]
  Met Kinase % Inhibition: 64.2%

## O=C1Nc2ccc(S(=O)(=O)Nc3ccc(C(F)(F)F)cc3)cc2C1=Cc1cc(Cl)ccc1O [10734/E04]
[1]
  PDGF Kinase %Inhibition: 26.7%
[2]
  Biochem EGFR %Inhibition: -7.8%
[3]
  Met Kinase % Inhibition: 88.9%
